# ChEMBL document CHEMBL5500322, “The significance of persisters in tuberculosis drug discovery: Exploring the potential of targeting the glyoxylate shunt pathway” (Eur J Med Chem, 2024)
# pIC50, pKi: −log10 of the molar value.
# Columns and labels:
# [1] = Inhibition of N-terminal His-tagged isocitrate lyase (unknown origin) expressed in Escherichia coli BL21 (DE3)
# [2] = tested on: Mycobacterium tuberculosis; test: Antibacterial activity against Mycobacterium tuberculosis H37Rv (ATCC 27294) assessed as bacterial growth inhibition incubated for 7 days by microdilution alamarBlue assay; assay type: functional; conditions: 168 h, time 7 day
# [3] = Binding affinity to indigofera isocitrate lyase assessed as inhibition of constant; set-up: species or system Vogesella indigofera
# [4] = Inhibition of N-terminal His-tagged Mycobacterium tuberculosis malate synthase expressed in Escherichia coli BL21 (DE3)
# [5] = Inhibition of Mycobacterium tuberculosis isocitrate lyase
# [6] = tested on: Mycobacterium tuberculosis; test: Inhibition of Mycobacterium tuberculosis isocitrate lyase at 0.05 microg/ml relative to control; conditions: dose 0.05 µg/ml
# [7] = tested on: Mycobacterium tuberculosis; test: Inhibition of Mycobacterium tuberculosis malate synthase at 1 uM relative to control
# [8] = tested on: Mycobacterium tuberculosis; test: Binding affinity to Mycobacterium tuberculosis isocitrate lyase assessed as inactivation constant
# [9] = tested on: Mycobacterium tuberculosis; test: Antimycobacterial activity against Mycobacterium tuberculosis assessed as reduction in bacterial growth; assay type: functional
# Escherichia coli = test: Antibacterial activity against Escherichia coli assessed as reduction in bacterial growth; assay type: functional, organism-based
# [10] = tested on: Mycobacterium tuberculosis; test: Antimycobacterial activity against Mycobacterium tuberculosis H37Rv assessed as reduction in bacterial growth measured after 7 days by broth dilution method; assay type: functional; conditions: 168 h, time 7 day
# [11] = tested on: Mycobacterium tuberculosis; test: Antimycobacterial activity against Mycobacterium tuberculosis H37Rv assessed as inhibition of bacterial growth incubated for 24 hrs by alamar blue assay; assay type: functional
# [12] = Binding affinity to Mycobacterium tuberculosis Malate synthase assessed as inhibition constant
smiles,measurement,setting,value
COC(=O)/C=C/C(=O)c1ccc(OC)cc1,pIC50,[1]; read-out: IC50,4.51
same,MIC,[2],0.25 µg/mL
O=C(O)CC[N+](=O)[O-],pKi,[3],3.92
O=C(O)/C(O)=C/C(=O)c1ccccc1,pIC50,[4],5.70
CCCCCCCCCCCCC(=O)NNC(=O)c1c(O)c2ccccc2n(CC)c1=O,IC50,[5],134.4 µg/mL
COc1ccc2cc(CCC(=O)CC(Nc3ccc(C(=O)O)cc3)c3ccc(Cl)cc3)ccc2c1 (centres undefined),inhibition,[6],57.4%
O=C(O)CC(O)C(=O)O (centres undefined),inhibition,[7],50%
O=C(O)[C@@H](C[N+](=O)[O-])[C@@H](O)C(=O)O,Kinact,[8],1.3 10^3/M.s
O=C(O)[C@H]1O[C@H]1C(=O)O,Kinact,[8],0.01 10^3/M.s
Nc1ccc(C(=O)O)c(O)c1 [AMINOSALICYLIC ACID],MIC,[9],≥ 125 µM
O=C(O)C(=O)CBr [BROMOPYRUVATE],pIC50,Escherichia coli,5.52
COc1ccc2c(c[n+](C)c3c4cc5c(cc4ccc23)OCO5)c1OC [CHELERYTHRINE],MIC,[10],8 µg/mL
O=c1ccc2ccc(O)c(O)c2o1 [DAPHNETIN],IC50,[1],4.34 µg/mL
same,MIC,[11],128 µg/mL
O=CC(=O)O [GLYOXYLATE],pKi,[12],3.05
C=C(CC(=O)O)C(=O)O [ITACONATE],pKi,[3],3.92
O=C(O)C(=O)O [OXALIC ACID],pKi,[12],3.40
C=C(OP(=O)(O)O)C(=O)O [PHOSPHOENOLPYRUVATE],pKi,[12],3.70
Nc1ccc(S(=O)(=O)Nc2nccs2)cc1 [SULFATHIAZOLE],MIC,[9],≥ 125 µM
